From the kinase profiling compilation of Christmann-Franck et al. (2016)
Several values for one entry are separate records, joined by “and”; a condition that tells them apart may be missing. Equal entries are not always repeated.

Key:
Assay in all cases: radiometric filter-binding kinase assay, Kinase HotSpot
Conditions in all cases: compound 0.5 µM; ATP 10 µM
[1] = target: CAMK1 (human) (UniProt Q14012)
[2] = target: CAMK2A (human) (UniProt Q9UQM7)
[3] = target: CAMK2B (human) (UniProt Q13554)
[4] = target: CAMK2D (human) (UniProt Q13557)
[5] = target: CAMK2G (human) (UniProt Q13555)
[6] = target: CAMK4 (human) (UniProt Q16566)
[7] = target: CDK4 CCND3 (human) (UniProt P30281+P11802)
[8] = target: CDK5 CDK5R1 p35 (human) (UniProt Q00535+Q15078)
[9] = target: CDK6 CCND3 (human) (UniProt P30281+Q00534)
CDK6 CCND3 (human), sequence (P30281 whole entry, looked up): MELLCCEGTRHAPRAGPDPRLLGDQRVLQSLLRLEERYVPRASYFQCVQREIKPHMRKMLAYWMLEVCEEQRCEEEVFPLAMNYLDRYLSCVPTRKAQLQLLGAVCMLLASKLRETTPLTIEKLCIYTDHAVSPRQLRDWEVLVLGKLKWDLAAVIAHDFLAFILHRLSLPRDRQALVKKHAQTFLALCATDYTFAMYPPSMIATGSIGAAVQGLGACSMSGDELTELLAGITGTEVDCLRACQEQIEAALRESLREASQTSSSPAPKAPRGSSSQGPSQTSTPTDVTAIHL
CDK6 CCND3 (human), sequence (Q00534 whole entry, looked up): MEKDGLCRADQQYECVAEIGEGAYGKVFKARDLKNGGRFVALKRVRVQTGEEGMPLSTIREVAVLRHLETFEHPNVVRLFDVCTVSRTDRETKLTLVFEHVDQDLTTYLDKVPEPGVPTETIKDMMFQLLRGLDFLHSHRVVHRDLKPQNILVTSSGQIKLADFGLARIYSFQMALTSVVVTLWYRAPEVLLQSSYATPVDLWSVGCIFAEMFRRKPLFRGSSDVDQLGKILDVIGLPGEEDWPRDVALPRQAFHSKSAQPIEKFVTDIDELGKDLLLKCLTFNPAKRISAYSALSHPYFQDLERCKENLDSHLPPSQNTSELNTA

[10] = target: CLK1 (human) (UniProt P49759)
[11] = target: DCLK2 (human) (UniProt Q8N568)
[12] = target: EPHB3 (human) (UniProt P54753)
EPHB3 (human), sequence (P54753 whole entry, looked up): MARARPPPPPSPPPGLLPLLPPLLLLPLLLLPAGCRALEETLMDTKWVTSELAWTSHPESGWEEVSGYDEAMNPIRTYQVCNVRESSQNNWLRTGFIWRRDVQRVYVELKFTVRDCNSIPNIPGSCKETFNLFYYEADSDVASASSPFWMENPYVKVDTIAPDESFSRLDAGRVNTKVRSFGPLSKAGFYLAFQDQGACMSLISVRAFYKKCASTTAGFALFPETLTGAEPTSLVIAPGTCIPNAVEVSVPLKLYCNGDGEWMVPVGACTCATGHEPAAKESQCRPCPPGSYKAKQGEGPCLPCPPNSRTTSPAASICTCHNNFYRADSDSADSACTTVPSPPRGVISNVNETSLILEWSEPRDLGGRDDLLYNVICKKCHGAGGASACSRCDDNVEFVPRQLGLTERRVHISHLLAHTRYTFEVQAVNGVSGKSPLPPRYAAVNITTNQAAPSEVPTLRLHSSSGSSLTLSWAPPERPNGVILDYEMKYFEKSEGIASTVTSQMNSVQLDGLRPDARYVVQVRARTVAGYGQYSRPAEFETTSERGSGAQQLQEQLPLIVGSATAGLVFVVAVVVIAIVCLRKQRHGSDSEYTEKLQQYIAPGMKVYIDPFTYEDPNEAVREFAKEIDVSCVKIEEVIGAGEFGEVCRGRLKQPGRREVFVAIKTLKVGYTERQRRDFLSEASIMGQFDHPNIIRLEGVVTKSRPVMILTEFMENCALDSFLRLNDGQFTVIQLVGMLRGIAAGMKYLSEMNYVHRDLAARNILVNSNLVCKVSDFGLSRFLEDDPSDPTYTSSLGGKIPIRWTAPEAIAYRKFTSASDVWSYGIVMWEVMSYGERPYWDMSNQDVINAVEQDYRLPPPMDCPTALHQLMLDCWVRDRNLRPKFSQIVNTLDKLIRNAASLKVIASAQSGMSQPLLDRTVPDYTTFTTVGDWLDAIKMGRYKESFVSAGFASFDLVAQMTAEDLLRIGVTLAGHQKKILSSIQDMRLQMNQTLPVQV

[13] = target: FGR (human) (UniProt P09769)
[14] = target: GRK5 (human) (UniProt P34947)
[15] = target: IRAK1 (human) (UniProt P51617)
[16] = target: JAK3 JH1 JH2 (human) (UniProt P52333)
[17] = target: LCK (human) (UniProt P06239)
[18] = target: MAP2K1 (human) (UniProt Q02750)
[19] = target: MAP3K11 (human) (UniProt Q16584)
[20] = target: MAP3K5 (human) (UniProt Q99683)
[21] = target: MAP3K7 TAB1 (human) (UniProt O43318+Q15750)
[22] = target: MAP4K4 (human) (UniProt O95819)
[23] = target: MAPK3 (human) (UniProt P27361)
[24] = target: MAPK8 (human) (UniProt P45983)
[25] = target: MAPKAPK3 (human) (UniProt Q16644)
[26] = target: MINK1 (human) (UniProt Q8N4C8)
[27] = target: MYLK (human) (UniProt Q15746)
[28] = target: NEK6 (human) (UniProt Q9HC98)
[29] = target: NEK9 (human) (UniProt Q8TD19)
NEK9 (human), sequence (Q8TD19 whole entry, looked up): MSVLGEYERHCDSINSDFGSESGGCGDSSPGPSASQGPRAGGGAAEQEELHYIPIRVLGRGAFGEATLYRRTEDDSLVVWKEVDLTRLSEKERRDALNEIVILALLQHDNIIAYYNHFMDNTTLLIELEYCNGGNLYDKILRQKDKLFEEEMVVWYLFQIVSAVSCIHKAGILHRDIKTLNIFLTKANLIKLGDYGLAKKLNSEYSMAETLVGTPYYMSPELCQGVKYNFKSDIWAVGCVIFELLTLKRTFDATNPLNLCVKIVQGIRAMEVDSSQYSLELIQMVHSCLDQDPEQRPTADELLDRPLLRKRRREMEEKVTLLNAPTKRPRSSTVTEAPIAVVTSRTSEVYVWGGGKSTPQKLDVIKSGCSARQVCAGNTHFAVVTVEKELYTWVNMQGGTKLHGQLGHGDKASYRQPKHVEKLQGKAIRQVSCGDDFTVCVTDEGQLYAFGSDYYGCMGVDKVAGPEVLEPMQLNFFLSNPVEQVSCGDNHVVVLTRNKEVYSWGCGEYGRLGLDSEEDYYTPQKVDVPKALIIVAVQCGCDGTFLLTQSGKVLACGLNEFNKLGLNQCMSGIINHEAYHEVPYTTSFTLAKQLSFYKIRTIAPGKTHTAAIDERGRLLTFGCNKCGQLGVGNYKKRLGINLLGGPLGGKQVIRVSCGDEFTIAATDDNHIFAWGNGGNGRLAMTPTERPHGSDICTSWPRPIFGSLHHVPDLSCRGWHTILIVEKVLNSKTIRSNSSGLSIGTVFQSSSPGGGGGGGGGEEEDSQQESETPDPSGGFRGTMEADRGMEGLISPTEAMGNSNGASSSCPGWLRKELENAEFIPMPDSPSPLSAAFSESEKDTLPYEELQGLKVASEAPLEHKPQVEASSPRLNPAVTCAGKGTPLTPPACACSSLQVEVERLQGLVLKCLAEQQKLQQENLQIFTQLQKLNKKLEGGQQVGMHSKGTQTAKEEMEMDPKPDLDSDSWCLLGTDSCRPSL

[30] = target: PASK (human) (UniProt Q96RG2)
[31] = target: PNCK (human) (UniProt Q6P2M8)
[32] = target: PRKG1 (human) (UniProt Q13976)
PRKG1 (human), sequence (Q13976 whole entry, looked up): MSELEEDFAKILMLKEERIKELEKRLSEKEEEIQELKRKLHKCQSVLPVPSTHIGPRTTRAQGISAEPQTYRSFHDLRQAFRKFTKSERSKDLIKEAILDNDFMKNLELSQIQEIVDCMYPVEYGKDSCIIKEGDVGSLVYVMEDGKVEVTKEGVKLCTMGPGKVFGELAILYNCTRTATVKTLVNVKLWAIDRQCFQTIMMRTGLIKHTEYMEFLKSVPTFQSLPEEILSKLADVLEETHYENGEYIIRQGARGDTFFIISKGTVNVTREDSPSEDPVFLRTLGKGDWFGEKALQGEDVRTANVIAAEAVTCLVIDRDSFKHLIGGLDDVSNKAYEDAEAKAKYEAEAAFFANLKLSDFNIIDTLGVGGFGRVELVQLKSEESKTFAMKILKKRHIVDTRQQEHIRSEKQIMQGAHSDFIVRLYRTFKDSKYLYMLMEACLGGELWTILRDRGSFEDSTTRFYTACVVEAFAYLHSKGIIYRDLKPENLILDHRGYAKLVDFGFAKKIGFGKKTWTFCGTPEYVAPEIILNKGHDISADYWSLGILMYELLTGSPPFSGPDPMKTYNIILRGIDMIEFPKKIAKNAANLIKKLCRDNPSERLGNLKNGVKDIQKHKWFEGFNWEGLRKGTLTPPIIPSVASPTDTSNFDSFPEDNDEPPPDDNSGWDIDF

[33] = target: ROCK2 (human) (UniProt O75116)
[34] = target: SRC (human) (UniProt P12931)
[35] = target: STK10 (human) (UniProt O94804)
[36] = target: STK16 (human) (UniProt O75716)
[37] = target: STK17A (human) (UniProt Q9UEE5)
[38] = target: STK25 (human) (UniProt O00506)
STK25 (human), sequence (O00506 whole entry, looked up): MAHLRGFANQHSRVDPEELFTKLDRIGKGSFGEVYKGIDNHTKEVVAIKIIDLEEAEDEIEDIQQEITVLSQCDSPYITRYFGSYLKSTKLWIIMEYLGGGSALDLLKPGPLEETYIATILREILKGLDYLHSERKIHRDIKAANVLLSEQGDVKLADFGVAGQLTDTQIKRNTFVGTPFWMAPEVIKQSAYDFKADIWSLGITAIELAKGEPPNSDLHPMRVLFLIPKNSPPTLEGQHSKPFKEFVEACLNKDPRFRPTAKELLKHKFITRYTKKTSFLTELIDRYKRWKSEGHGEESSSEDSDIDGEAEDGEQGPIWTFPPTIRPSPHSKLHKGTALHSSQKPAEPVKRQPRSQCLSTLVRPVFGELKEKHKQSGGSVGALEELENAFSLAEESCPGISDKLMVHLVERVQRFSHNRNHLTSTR

[39] = target: STK3 (human) (UniProt Q13188)
[40] = target: STK33 (human) (UniProt Q9BYT3)
[41] = target: STK38 (human) (UniProt Q15208)
[42] = target: TGFBR2 (human) (UniProt P37173)
TGFBR2 (human), sequence (P37173 whole entry, looked up): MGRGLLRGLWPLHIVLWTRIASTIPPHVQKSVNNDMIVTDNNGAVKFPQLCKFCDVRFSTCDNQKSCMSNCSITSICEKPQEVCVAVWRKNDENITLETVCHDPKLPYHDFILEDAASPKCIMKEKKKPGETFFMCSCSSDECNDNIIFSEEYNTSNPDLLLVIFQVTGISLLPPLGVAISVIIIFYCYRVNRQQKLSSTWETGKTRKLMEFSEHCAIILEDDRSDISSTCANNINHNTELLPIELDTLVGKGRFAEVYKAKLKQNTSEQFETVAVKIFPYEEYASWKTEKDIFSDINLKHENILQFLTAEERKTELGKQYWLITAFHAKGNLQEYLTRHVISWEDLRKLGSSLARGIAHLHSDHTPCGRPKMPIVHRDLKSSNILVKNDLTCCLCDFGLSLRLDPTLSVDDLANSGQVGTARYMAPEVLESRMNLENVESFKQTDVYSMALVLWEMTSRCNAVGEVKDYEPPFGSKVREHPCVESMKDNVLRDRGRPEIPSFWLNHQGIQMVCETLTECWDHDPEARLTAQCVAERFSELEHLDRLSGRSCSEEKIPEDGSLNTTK

CAMK2A (human), sequence (Q9UQM7 whole entry, looked up): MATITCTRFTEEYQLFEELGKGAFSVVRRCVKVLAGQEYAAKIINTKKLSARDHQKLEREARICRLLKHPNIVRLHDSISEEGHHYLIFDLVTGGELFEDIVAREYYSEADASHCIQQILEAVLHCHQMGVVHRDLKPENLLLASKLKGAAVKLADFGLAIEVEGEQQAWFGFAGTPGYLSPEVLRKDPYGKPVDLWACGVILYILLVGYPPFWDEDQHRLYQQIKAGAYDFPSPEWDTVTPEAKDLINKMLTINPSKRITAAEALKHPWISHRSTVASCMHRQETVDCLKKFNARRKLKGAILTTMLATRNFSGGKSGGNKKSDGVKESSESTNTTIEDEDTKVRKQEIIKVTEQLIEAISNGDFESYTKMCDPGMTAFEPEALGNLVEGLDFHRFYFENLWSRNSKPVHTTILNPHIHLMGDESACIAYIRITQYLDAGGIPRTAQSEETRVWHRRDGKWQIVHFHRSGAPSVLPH

**Q.** Which results are given for `CCC(=O)Nc1ccc2ncnc(Nc3cccc(Br)c3)c2c1`?
**A.** residual activity [1]: 88.9%; residual activity [2]: 85.7%; residual activity [3]: 105%; residual activity [4]: 113%; residual activity [5]: 105%; residual activity [6]: 103%; residual activity [7]: 90.4%; residual activity [8]: 100%; residual activity [9]: 94.8%; residual activity [10]: 84.5%; residual activity [11]: 89%; residual activity [12]: 89.4%; residual activity [13]: 93.2%; residual activity [14]: 107%; residual activity [15]: 92.7%; residual activity [16]: 98.3%; residual activity [17]: 93.1%; residual activity [18]: 105%; residual activity [19]: 97.1%; residual activity [20]: 102%; residual activity [21]: 94%; residual activity [22]: 91.1%; residual activity [23]: 101%; residual activity [24]: 73.7%; residual activity [25]: 90.2%; residual activity [26]: 95.8%; residual activity [27]: 95.5%; residual activity [28]: 105%; residual activity [29]: 105%; residual activity [30]: 88.7%; residual activity [31]: 96%; residual activity [32]: 101% and 110%; residual activity [33]: 86.1%; residual activity [34]: 93.6%; residual activity [35]: 68.7%; residual activity [36]: 99.6%; residual activity [37]: 88.7%; residual activity [38]: 102%; residual activity [39]: 88%; residual activity [40]: 94.1%; residual activity [41]: 100%; residual activity [42]: 116%

**Q.** `Oc1cccc(-c2nc(N3CCOCC3)c3oc4ncccc4c3n2)c1` was tested. Which residual activity [1] did it give?
**A.** The residual activity was 101%.

**Q.** And the residual activity [2]?
**A.** The residual activity was 93.7%.

**Q.** And the residual activity [3]?
**A.** Its residual activity is 98.2%.

**Q.** And the residual activity [4]?
**A.** The residual activity was 96.2%.

**Q.** What about the residual activity [5] of the same compound?
**A.** The residual activity was 100%.

**Q.** And the residual activity [6]?
**A.** Its residual activity is 103%.

**Q.** What about the residual activity [7] of the same compound?
**A.** The residual activity was 92.5%.

**Q.** What about the residual activity [8] of the same compound?
**A.** Its residual activity is 101%.

**Q.** What about the residual activity [9] of the same compound?
**A.** Its residual activity is 89.7%.

**Q.** And the residual activity [10]?
**A.** The residual activity was 85.2%.

**Q.** And the residual activity [11]?
**A.** Its residual activity is 102%.

**Q.** What about the residual activity [13] of the same compound?
**A.** The residual activity was 94.8%.

**Q.** What about the residual activity [15] of the same compound?
**A.** Its residual activity is 84.2%.

**Q.** What about the residual activity [16] of the same compound?
**A.** The residual activity was 99%.

**Q.** And the residual activity [17]?
**A.** The residual activity was 98%.

**Q.** What about the residual activity [18] of the same compound?
**A.** The residual activity was 97.7%.

**Q.** What about the residual activity [19] of the same compound?
**A.** Its residual activity is 96.5%.

**Q.** And the residual activity [20]?
**A.** The residual activity was 101%.

**Q.** What about the residual activity [21] of the same compound?
**A.** Its residual activity is 97.4%.

**Q.** What about the residual activity [22] of the same compound?
**A.** The residual activity was 91.4%.

**Q.** And the residual activity [23]?
**A.** The residual activity was 94.1%.

**Q.** And the residual activity [24]?
**A.** The residual activity was 89.8%.

**Q.** What about the residual activity [25] of the same compound?
**A.** Its residual activity is 93.9%.

**Q.** What about the residual activity [26] of the same compound?
**A.** Its residual activity is 96%.

**Q.** What about the residual activity [27] of the same compound?
**A.** The residual activity was 77.1%.

**Q.** What about the residual activity [28] of the same compound?
**A.** Its residual activity is 106%.

**Q.** And the residual activity [29]?
**A.** Its residual activity is 99.3%.

**Q.** What about the residual activity [30] of the same compound?
**A.** Its residual activity is 83.8%.

**Q.** And the residual activity [31]?
**A.** The residual activity was 96.7%.

**Q.** What about the residual activity [32] of the same compound?
**A.** Its residual activity is 109% and 96.3%.

**Q.** And the residual activity [33]?
**A.** Its residual activity is 94.5%.

**Q.** What about the residual activity [34] of the same compound?
**A.** The residual activity was 97.2%.

**Q.** What about the residual activity [35] of the same compound?
**A.** Its residual activity is 92.1%.

**Q.** What about the residual activity [36] of the same compound?
**A.** The residual activity was 91.7%.

**Q.** What about the residual activity [37] of the same compound?
**A.** The residual activity was 93.8%.

**Q.** What about the residual activity [38] of the same compound?
**A.** The residual activity was 93.4%.

**Q.** And the residual activity [39]?
**A.** The residual activity was 105%.

**Q.** What about the residual activity [41] of the same compound?
**A.** The residual activity was 99%.

**Q.** What about the residual activity [42] of the same compound?
**A.** Its residual activity is 102%.

**Q.** Which results are given for `c1ccc(-c2n[nH]cc2-c2ccnc3ccccc23)nc1`?
**A.** residual activity [1]: 96.1%; residual activity [2]: 102%; residual activity [3]: 97.2%; residual activity [4]: 101%; residual activity [5]: 85.9%; residual activity [6]: 97.5%; residual activity [7]: 102%; residual activity [8]: 98.6%; residual activity [9]: 98.2%; residual activity [10]: 106%; residual activity [11]: 97.4%; residual activity [12]: 97.1%; residual activity [13]: 91.9%; residual activity [14]: 109%; residual activity [15]: 124%; residual activity [16]: 92.7%; residual activity [17]: 91.7%; residual activity [18]: 93.7%; residual activity [19]: 96.5%; residual activity [20]: 105%; residual activity [21]: 98.4%; residual activity [22]: 48.3%; residual activity [23]: 101%; residual activity [25]: 92.9%; residual activity [26]: 84.1%; residual activity [27]: 105%; residual activity [28]: 106%; residual activity [29]: 94.7%; residual activity [30]: 77.1%; residual activity [31]: 98.3%; residual activity [32]: 86% and 92.7%; residual activity [33]: 100%; residual activity [34]: 94.7%; residual activity [35]: 90.1%; residual activity [36]: 100%; residual activity [37]: 117%; residual activity [38]: 96.9%; residual activity [39]: 102%; residual activity [40]: 92.9%; residual activity [41]: 111%; residual activity [42]: 109%

**Q.** For `CCOC(=O)c1c(C)[nH]c(/C=C2\C(=O)Nc3ccccc32)c1C`, which residual activity [1] is on record?
**A.** Its residual activity is 98.1%.

**Q.** And the residual activity [2]?
**A.** The residual activity was 96.8%.

**Q.** And the residual activity [3]?
**A.** The residual activity was 96%.

**Q.** And the residual activity [4]?
**A.** The residual activity was 93.9%.

**Q.** And the residual activity [5]?
**A.** Its residual activity is 97.6%.

**Q.** And the residual activity [6]?
**A.** The residual activity was 97.7%.

**Q.** And the residual activity [7]?
**A.** The residual activity was 106%.

**Q.** What about the residual activity [8] of the same compound?
**A.** The residual activity was 96.7%.

**Q.** What about the residual activity [9] of the same compound?
**A.** Its residual activity is 84.7%.

**Q.** And the residual activity [10]?
**A.** Its residual activity is 98.2%.

**Q.** What about the residual activity [11] of the same compound?
**A.** The residual activity was 94.7%.

**Q.** What about the residual activity [12] of the same compound?
**A.** The residual activity was 94.4%.

**Q.** And the residual activity [13]?
**A.** The residual activity was 79.3%.

**Q.** And the residual activity [14]?
**A.** The residual activity was 102%.

**Q.** And the residual activity [15]?
**A.** Its residual activity is 111%.

**Q.** And the residual activity [16]?
**A.** Its residual activity is 69.1%.

**Q.** And the residual activity [17]?
**A.** The residual activity was 88.2%.

**Q.** And the residual activity [19]?
**A.** Its residual activity is 47%.

**Q.** And the residual activity [21]?
**A.** Its residual activity is 85.8%.

**Q.** And the residual activity [22]?
**A.** Its residual activity is 64.5%.

**Q.** What about the residual activity [23] of the same compound?
**A.** The residual activity was 101%.

**Q.** What about the residual activity [24] of the same compound?
**A.** Its residual activity is 106%.

**Q.** And the residual activity [25]?
**A.** The residual activity was 91.7%.

**Q.** What about the residual activity [26] of the same compound?
**A.** Its residual activity is 88.9%.

**Q.** What about the residual activity [27] of the same compound?
**A.** Its residual activity is 94.8%.

**Q.** And the residual activity [28]?
**A.** Its residual activity is 98.1%.

**Q.** What about the residual activity [29] of the same compound?
**A.** The residual activity was 80.8%.

**Q.** What about the residual activity [30] of the same compound?
**A.** Its residual activity is 91.4%.

**Q.** And the residual activity [31]?
**A.** The residual activity was 88.6%.

**Q.** What about the residual activity [32] of the same compound?
**A.** The residual activity was 78.3% and 92.8%.

**Q.** And the residual activity [33]?
**A.** Its residual activity is 94.3%.

**Q.** And the residual activity [34]?
**A.** Its residual activity is 93.8%.

**Q.** And the residual activity [35]?
**A.** The residual activity was 82.2%.

**Q.** And the residual activity [36]?
**A.** Its residual activity is 88.3%.

**Q.** What about the residual activity [37] of the same compound?
**A.** Its residual activity is 81.4%.

**Q.** What about the residual activity [38] of the same compound?
**A.** The residual activity was 98.5%.

**Q.** And the residual activity [39]?
**A.** The residual activity was 73.7%.

**Q.** What about the residual activity [40] of the same compound?
**A.** The residual activity was 83.7%.

**Q.** What about the residual activity [41] of the same compound?
**A.** Its residual activity is 101%.

**Q.** And the residual activity [42]?
**A.** The residual activity was 101%.
